pIC50: −log10 of the molar value. Counter-ions that a name gives are not always drawn.
Columns and labels:
BACE1 [1] = biological target: T1, BACE1 (Homo sapiens, UniProt P56817); test: Cellular Aβ-lowering assay a): HEK293 cells expressing human APP695, Aβ40 ELISA; type: cell-based; settings: Aβ40 in supernatant by ELISA, 18-20 hrs incubation
T1 construct: endogenous in cells; host or cells: HEK293 stably transfected with human APP695 wt
Experimental: Cellular Aβ-Lowering Assay:
a) Human HEK293 cells which are stably transfected with a vector expressing a cDNA of the human APP wt gene (APP695) were used to assess the potency of the compounds in a cellular assay. The cells were seeded in 96-well microtiter plates in cell culture medium (Iscove, plus 10% (v/v) fetal bovine serum, glutamine, penicillin/streptomycin) to about 80% confluence and the compounds were added at a 10× concentration in 1/10 volume of medium without FCS containing 8% DMSO (final concentration of DMSO was kept at 0.8% v/v). After 18-20 hrs incubation at 37° C. and 5% CO2 in a humidified incubator the culture supernatant was harvested for the determination of Aβ40 concentrations. 96 well ELISA plates (e.g., Nunc MaxiSorb) were coated with monoclonal antibody which specifically recognize the C-terminal end of Aβ40 (Brockhaus et al., NeuroReport 9, 1481-1486; 1998). After blocking of non-specific binding sites with e.g. 1% BSA and washing, the culture supernatants were added in suitable dilutions together with a horseradish peroxidase-coupled Aβ detection antibody (e.g., antibody 4G8, Senetek, Maryland Heights, Mo.) and incubated for 5 to 7 hrs. Subsequently the wells of the microtiter plate were washed extensively with Tris-buffered saline containing 0.05% Tween 20 and the assay was developed with tetramethylbenzidine/H2O2 in citric acid buffer. After stopping the reaction with one volume 1 N H2SO4 the reaction was measured in an ELISA reader at 450 nm wavelength. The concentrations of Aβ in the culture supernatants were calculated from a standard curve obtained with known amounts of pure Aβ peptide.

BACE1 [2] = biological target: T1, BACE1; test: Cellular Aβ-lowering assay b): HEK293 APP Abeta 40 AlphaLISA Assay; type: cell-based; settings: assay b): HEK293 APP cells, Aβ 40 in supernatant by AlphaLISA, 18-20 hrs incubation
Experimental: b) HEK293 APP: Abeta 40 AlphaLISA Assay
The cells were seeded in 96 well Microtiter plates in cell culture medium (Iscove's, plus 10% (v/v) fetal bovine serum, penicillin/streptomycin) to about 80% confluency and the compounds were added at a 3× concentration in ⅓ volume of culture medium (final DMSO concentration was kept at 1% v/v). After 18-20 hrs incubation at 37° C. and 5% CO2 in a humidified incubator, the culture supernatants were harvested for the determination of Aβ 40 concentrations using Perkin-Elmer Human Amyloid beta 1-40 (high specificity) Kit (Cat#AL275C).
In a Perkin-Elmer White Optiplate-384 (Cat#6007290), […] culture supernatants were combined with 2 μl of a 10X AlphaLISA Anti-hAβ Acceptor beads+Biotinylated Antibody Anti-Aβ 1-40 Mix (50 μg/mL/5 nM). After 1 hour room temperature incubation, 16 μl of a 1.25× preparation of Streptavidin (SA) Donor beads (25 μg/mL) were added and incubated for 30 minutes in the Dark. Light Emission at 615 nm was then recorded using EnVision-Alpha Reader. Levels of Aβ 40 in the culture supernatants were calculated as percentage of maximum signal (cells treated with 1% DMSO without inhibitor). The IC50 values were calculated using the Excel XLfit software.

T1 sequence (P56817 46-501): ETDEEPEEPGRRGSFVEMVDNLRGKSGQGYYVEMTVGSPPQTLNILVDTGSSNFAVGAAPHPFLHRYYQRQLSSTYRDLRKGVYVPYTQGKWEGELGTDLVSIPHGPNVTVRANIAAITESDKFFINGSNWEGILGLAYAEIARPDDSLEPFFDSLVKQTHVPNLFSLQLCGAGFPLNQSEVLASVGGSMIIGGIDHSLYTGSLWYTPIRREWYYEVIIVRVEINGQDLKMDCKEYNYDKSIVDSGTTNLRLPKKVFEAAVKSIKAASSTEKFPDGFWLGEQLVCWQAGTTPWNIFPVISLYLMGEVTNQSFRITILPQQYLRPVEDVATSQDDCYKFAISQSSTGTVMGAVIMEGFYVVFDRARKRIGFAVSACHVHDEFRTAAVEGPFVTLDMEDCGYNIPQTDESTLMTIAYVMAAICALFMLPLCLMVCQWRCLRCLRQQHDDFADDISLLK

## CC1(C)OCC(N)=N[C@](C)(c2cc(-c3nc4ccc(Cl)cc4o3)ccc2F)C1(F)F [Example 19, (R)-5-[5-(6-Chloro-benzooxazol-2-yl)-2-fluoro-phenyl]-6,6-difluoro-5,7,7-trimethyl-2,5,6,7-tetrahydro-[1,4]oxazepin-3-ylamine hydrochloride]
BACE1 [1]
  pIC50: 6.60

## CC1(C)OCC(N)=N[C@](C)(c2cc(-c3cnn(-c4ccc(F)cc4)c3)ccc2F)C1(F)F [Example 6, (R)-6,6-Difluoro-5-{2-fluoro-5-[1-(4-fluoro-phenyl)-1H-pyrazol-4-yl]-phenyl}-5,7,7-trimethyl-2,5,6,7-tetrahydro-[1,4]oxazepin-3-ylamine]
BACE1 [1]
  pIC50: 6.28

## CC1(C)OCC(N)=N[C@](C)(c2cc(C3=CCOCC3)ccc2F)C1(F)F [Example 5, (R)-5-[5-(3,6-Dihydro-2H-pyran-4-yl)-2-fluoro-phenyl]-6,6-difluoro-5,7,7-trimethyl-2,5,6,7-tetrahydro-[1,4]oxazepin-3-ylamine]
BACE1 [1]
  pIC50: 6.37

## CC1(C)OCC(N)=N[C@](C)(c2cc(-c3nc4ccc(C(F)(F)F)cc4o3)c(F)cc2F)C1(F)F [Example 43, (R)-5-[2,4-Difluoro-5-(6-trifluoromethyl-benzooxazol-2-yl)-phenyl]-6,6-difluoro-5,7,7-trimethyl-2,5,6,7-tetrahydro-[1,4]oxazepin-3-ylamine]
BACE1 [2]
  pIC50: 7.15

## COc1cnc(C#Cc2ccc(F)c([C@@]3(C)N=C(N)COC(C)(C)C3(F)F)c2)cn1 [Example 40, (R)-6,6-Difluoro-5-[2-fluoro-5-(5-methoxy-pyrazin-2-ylethynyl)-phenyl]-5,7,7-trimethyl-2,5,6,7-tetrahydro-[1,4]oxazepin-3-ylamine]
BACE1 [2]
  pIC50: 6.32

## Cc1nc(C#Cc2ccc(F)c([C@@]3(C)N=C(N)COC(C)(C)C3(F)F)c2)cs1 [Example 17, (R)-6,6-Difluoro-5-[2-fluoro-5-(2-methyl-thiazol-4-ylethynyl)-phenyl]-5,7,7-trimethyl-2,5,6,7-tetrahydro-[1,4]oxazepin-3-ylamine]
BACE1 [1]
  pIC50: 6.10

## Cn1nccc1-c1ccc(F)c([C@@]2(C)N=C(N)COC(C)(C)C2(F)F)c1 [Example 7, (R)-6,6-Difluoro-5-[2-fluoro-5-(2-methyl-2H-pyrazol-3-yl)-phenyl]-5,7,7-trimethyl-2,5,6,7-tetrahydro-[1,4]oxazepin-3-ylamine]
BACE1 [1]
  pIC50: 6.27

## CC1(C)OCC(N)=N[C@](C)(c2cc(-c3cn(-c4ccccn4)cn3)ccc2F)C1(F)F [Example 22, (R)-6,6-Difluoro-5-[2-fluoro-5-(1-pyridin-2-yl-1H-imidazol-4-yl)-phenyl]-5,7,7-trimethyl-2,5,6,7-tetrahydro-[1,4]oxazepin-3-ylamine]
BACE1 [2]
  pIC50: 6.70

## CC1(C)OCC(N)=N[C@](C)(c2cc(-c3ccc(C#N)cc3)c(F)cc2F)C1(F)F [Example 27, 5′-((R)-3-amino-6,6-difluoro-5,7,7-trimethyl-2,5,6,7-tetrahydro-[1,4]oxazepin-5-yl)-2′,4′-difluoro-biphenyl-4-carbonitrile]
BACE1 [1]
  pIC50: 6.37

## CC1(C)OCC(N)=N[C@](C)(c2cc(-c3cncnc3)ccc2F)C1(F)F [Example 2, (R)-6,6-Difluoro-5-(2-fluoro-5-pyrimidin-5-yl-phenyl)-5,7,7-trimethyl-2,5,6,7-tetrahydro-[1,4]oxazepin-3-ylamine]
BACE1 [1]
  pIC50: 7.25

## COc1ncc(-c2cc([C@@]3(C)N=C(N)COC(C)(C)C3(F)F)c(F)cc2F)cn1 [Example 30, (R)-5-[2,4-Difluoro-5-(2-methoxy-pyrimidin-5-yl)-phenyl]-6,6-difluoro-5,7,7-trimethyl-2,5,6,7-tetrahydro-[1,4]oxazepin-3-ylamine formate]
BACE1 [2]
  pIC50: 7.12

## CC1(C)OCC(N)=N[C@](C)(c2cc(-c3cccc(C#N)c3)c(F)cc2F)C1(F)F [Example 28, 5′-((R)-3-Amino-6,6-difluoro-5,7,7-trimethyl-2,5,6,7-tetrahydro-[1,4]oxazepin-5-yl)-2′,4′-difluoro-biphenyl-3-carbonitrile]
BACE1 [1]
  pIC50: 6.10

## C[C@]1(c2cc(-c3cncnc3)ccc2F)N=C(N)COCC1(F)F [Example 1, (R)-6,6-Difluoro-5-(2-fluoro-5-pyrimidin-5-yl-phenyl)-5-methyl-2,5,6,7-tetrahydro-[1,4]oxazepin-3-ylamine formate]
BACE1 [1]
  pIC50: 6.60

## CC1(C)OCC(N)=N[C@](C)(c2cc(C#Cc3cccc(Cl)c3)ccc2F)C1(F)F [Example 9, (R)-5-[5-(3-Chloro-phenylethynyl)-2-fluoro-phenyl]-6,6-difluoro-5,7,7-trimethyl-2,5,6,7-tetrahydro-[1,4]oxazepin-3-ylamine]
BACE1 [1]
  pIC50: 5.87

## CC1(C)OCC(N)=N[C@](C)(c2cc(C3CCOCC3)ccc2F)C1(F)F [Example 8, (R)-6,6-Difluoro-5-[2-fluoro-5-(tetrahydro-pyran-4-yl)-phenyl]-5,7,7-trimethyl-2,5,6,7-tetrahydro-[1,4]oxazepin-3-ylamine]
BACE1 [1]
  pIC50: 6.19

## CC1(C)OCC(N)=N[C@](C)(c2cc(-c3nc4cc(F)c(F)cc4o3)c(F)cc2F)C1(F)F [Example 42, (R)-5-[5-(5,6-Difluoro-benzooxazol-2-yl)-2,4-difluoro-phenyl]-6,6-difluoro-5,7,7-trimethyl-2,5,6,7-tetrahydro-[1,4]oxazepin-3-ylamine]
BACE1 [2]
  pIC50: 6.26

## CC1(C)OCC(N)=N[C@](C)(c2cc(C#Cc3cccc(Cl)c3)c(F)cc2F)C1(F)F [Example 24, (R)-5-[5-(3-Chloro-phenylethynyl)-2,4-difluoro-phenyl]-6,6-difluoro-5,7,7-trimethyl-2,5,6,7-tetrahydro-[1,4]oxazepin-3-ylamine]
BACE1 [2]
  pIC50: 5.90

## CC1(C)OCC(N)=N[C@](C)(c2cc(C#Cc3cncc(Cl)c3)ccc2F)C1(F)F [Example 38, (R)-5-[5-(5-Chloro-pyridin-3-ylethynyl)-2-fluoro-phenyl]-6,6-difluoro-5,7,7-trimethyl-2,5,6,7-tetrahydro-[1,4]oxazepin-3-ylamine]
BACE1 [2]
  pIC50: 6.82

## CC1(C)OCC(N)=N[C@](C)(c2cc(-c3ccc(C#N)cc3)ccc2F)C1(F)F [Example 20, 3′-((R)-3-Amino-6,6-difluoro-5,7,7-trimethyl-2,5,6,7-tetrahydro-[1,4]oxazepin-5-yl)-4′-fluoro-biphenyl-4-carbonitrile]
BACE1 [2]
  pIC50: 6.15

## CC1(C)OCC(N)=N[C@](C)(c2cc(-c3ccc(C#N)cc3F)ccc2F)C1(F)F [Example 13, 3′-((R)-3-amino-6,6-difluoro-5,7,7-trimethyl-2,5,6,7-tetrahydro-[1,4]oxazepin-5-yl)-2,4′-difluoro-biphenyl-4-carbonitrile]
BACE1 [1]
  pIC50: 7.04

## CC1(C)OCC(N)=N[C@](C)(c2cc(-c3cncnc3)c(F)cc2F)C1(F)F [Example 25, (R)-6,6-Difluoro-5-(2,4-difluoro-5-pyrimidin-5-yl-phenyl)-5,7,7-trimethyl-2,5,6,7-tetrahydro-[1,4]oxazepin-3-ylamine]
BACE1 [1]
  pIC50: 8.15

## CC1(C)OCC(N)=N[C@](C)(c2cc(C#Cc3ncc(Cl)cn3)ccc2F)C1(F)F [Example 34, (R)-5-[5-(5-Chloro-pyrimidin-2-ylethynyl)-2-fluoro-phenyl]-6,6-difluoro-5,7,7-trimethyl-2,5,6,7-tetrahydro-[1,4]oxazepin-3-ylamine]
BACE1 [2]
  pIC50: 7.89

## CC1(C)OCC(N)=N[C@](C)(c2cc(-c3nc4cc(Cl)ccc4o3)c(F)cc2F)C1(F)F [Example 41, (R)-5-[5-(5-Chloro-benzooxazol-2-yl)-2,4-difluoro-phenyl]-6,6-difluoro-5,7,7-trimethyl-2,5,6,7-tetrahydro-[1,4]oxazepin-3-ylamine]
BACE1 [2]
  pIC50: 6.26

## CC1(C)OCC(N)=N[C@](C)(c2cc(-c3ncc(Cl)cn3)c(F)cc2F)C1(F)F [Example 32, (R)-5-[5-(5-Chloro-pyrimidin-2-yl)-2,4-difluoro-phenyl]-6,6-difluoro-5,7,7-trimethyl-2,5,6,7-tetrahydro-[1,4]oxazepin-3-ylamine]
BACE1 [2]
  pIC50: 6.30

## CC1(C)OCC(N)=N[C@](C)(c2cc(C#Cc3ccnc(Cl)c3)ccc2F)C1(F)F [Example 35, (R)-5-[5-(2-Chloro-pyridin-4-ylethynyl)-2-fluoro-phenyl]-6,6-difluoro-5,7,7-trimethyl-2,5,6,7-tetrahydro-[1,4]oxazepin-3-ylamine]
BACE1 [2]
  pIC50: 7.10

Source: patent US8877744B2, “1,4-Oxazepines as BACE1 and/or BACE2 inhibitors” (Hoffmann-La Roche Inc., priority 2011, dated 2014)
